According to patent US20240382498A1, “NOVEL INHIBITOR OF HYPE-MEDIATED AMPYLATION” (Purdue Research Foundation, priority 2023, published 2024):
Read-outs that look alike come from different tables or passages of the source.

What was measured:
E234G HYPE [1] = target: T1, E234G HYPE (Homo sapiens, UniProt Q9BVA6, E234G); assay: Fluorescence in-gel autoAMPylation assay with E234G HYPE and Fl-ATP; type: biochemical; settings: 10 μM compound
T1 construct: Δ102 (aa 103-458) HYPE constructs (WT, E234G, and E234G/H363A); His6-SUMO (cleaved yes); made in house; host or cells: E. coli BL21-DE3-RILP
T1 sequence (Q9BVA6 103-458 E234G): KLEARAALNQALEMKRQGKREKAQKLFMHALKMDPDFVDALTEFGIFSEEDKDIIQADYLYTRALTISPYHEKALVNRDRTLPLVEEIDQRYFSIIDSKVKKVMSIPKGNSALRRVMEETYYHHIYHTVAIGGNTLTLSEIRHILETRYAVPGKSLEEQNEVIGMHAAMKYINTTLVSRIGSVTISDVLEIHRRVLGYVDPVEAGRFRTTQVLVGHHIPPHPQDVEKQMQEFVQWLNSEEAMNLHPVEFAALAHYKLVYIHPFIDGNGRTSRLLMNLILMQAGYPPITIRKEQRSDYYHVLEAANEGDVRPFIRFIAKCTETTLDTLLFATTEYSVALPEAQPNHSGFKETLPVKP
Procedure: 1 μM of WT HYPE (final concentration) was preincubated with 10 μM DMSO-dissolved compound (final concentration) or equivalent volume of 100% DMSO at room temperature for 10 min. Reactions were run for 20 hr at 30° C. in the dark and began with the addition of 1 μM Fl-ATP (final concentration). Alternatively, E234G HYPE AMPylation reactions were run at 10 min due to its hyperactivity. All other parameters were held constant. All reactions were performed HTS Buffer (50 mM HEPES, 1 mM MgCl2, 0.1% Triton X-100, pH 7.50). All reactions were quenched with 4×SDS loading dye, boiled for 5 min at 95° C., and samples were run on 12% SDS-PAGE gels. Gels were imaged on a Typhoon 9500 FLA imager (General Electric) for fluorescence at 473 nm. Imaged gels were then stained with Coomassie Brilliant Blue, destained, and imaged for protein concentration. Where specified, 5 μM of T229A BiP (final concentration) was added to reactions before the addition of compound.

E234G HYPE [2] = target: T1, E234G HYPE; assay: Fluorescence polarization (FP) microplate autoAMPylation assay with Fl-ATP, E234G HYPE inhibitor HTS, cherrypick validation and concentration-response; type: biochemical; settings: for inhibition at 10 µM: 10 μM compound
Procedure: Buffer optimization experiments were performed by incubating 0.4 μM of Δ102 HYPE enzyme with 25 nM Fl-ATP (final concentrations) in HTS buffer (50 mM HEPES (pH 7.5), 1 mM MgCl2, 0.1% Triton X-100, 1% DMSO) in the dark at room temperature for 10 min in 384-well black bottom, black wall microplates (20 μL reaction volume). Where specified, 1 mM MgCl2 was replaced with an equivalent concentration of MnCl2, or 0.1% Triton X-100 was replaced with 0.05% or 0.01% Trion X-100. Microplates were snap centrifuged at 1000 g for 10 sec. Microplates were loaded onto a BioTek BioStack NEO2 plate-reader and assessed for fluorescence polarization with 485/530 nm filters and a 55/50 gain adjustment.
A Multidrop 384 reagent dispenser (ThermoFisher) was used to add 0.4 μM HYPE, then 25 nM Fl-ATP (final concentrations) to 384-well black/black microplates (20 μL reaction volume). Both enzyme and nucleotide were dissolved in HTS Buffer. AMPylation Reactions were incubated for 10 min at room temperature in the dark. Microplates were snap centrifuged at 1000 g for 10 sec, then transferred to BioTek BioStack NEO2 plate-reader. Reactions were assessed for fluorescence polarization with 485/530 nm filters and a 55/50 gain adjustment. Z′, S/B, and CV values were determined by fitting the data to Eq. 1, 2, and 3, respectively,
An Echo Liquid Handler (Labcyte) was used to transfer 200 nL of DMSO-dissolved compounds via acoustic-coupled ejection from 10 mM source plates into 384-well black, flat-bottom, black-walled microplates, for a final compound concentration of 10 μM. Compounds were sourced from the following libraries: DIVERset (Chembridge), CNS-Set (Chembridge). The compounds went into columns 3-22 of each plate, while columns 1, 2, 23, and 24 were reserved for equivalent volume of 100% DMSO controls.
A Multidrop 384 reagent dispenser was used to pipette 0.4 μM of WT HYPE (final concentration) dissolved in HTS Buffer into columns 1-22 of the activator plates, and columns 1 and 2 of the inhibitor plates as positive controls. 0.4 μM of E234G HYPE was similarly added to columns 3-24 of the inhibitor plates, and columns 23 and 24 of the […]. Enzymes were then incubated with either compounds or DMSO for 10 min at room temperature.
A Multidrop 384 reagent dispenser was used to pipette 25 nM of Fl-ATP (final concentration) into all wells of each plate, giving a final reaction volume of 20 μL. Plates were then incubated for 10 min at room temperature in the dark, followed by a snap centrifugation at 1000 g for 10 sec. Microplates were loaded onto BioTek BioStack stacker and read in succession for fluorescence polarization with 485/530 nm filters and a 55/50 gain adjustment. Fluorescence polarization values were converted to fractional activation (FA) or fractional inhibition FI) values according to Eq. (3) or (4), respectively,
[formula] [formula] • where μp and μn are the means of the positive (E234G HYPE) and negative (WT HYPE) controls, respectively; and x is the measured value of fluorescence polarization.
Microplate “cherrypicking” validations were performed as described above.
A Multidrop 384 reagent dispenser was used to pipette 0.4 μM of WT or E234G HYPE (final concentrations) dissolved in HTS Buffer into designated microplate wells. 10 μM of DMSO-dissolved compounds (final concentrations) or equivalent volume of 100% DMSO were manually pipetted into their specified wells. Enzymes were incubated with compounds or DMSO for 10 min at room temperature. Reagent dispenser was then used to pipette 25 nM of Fl-ATP (final concentration) into each well, followed by a 10 min incubation at room temperature in the dark. Plates were snap centrifuged at 1000 g for 10 sec, then transferred to BioTek BioStack NEO2 plate-reader. Reactions were assessed for fluorescence polarization with 485/530 nm filters and a 55/50 gain adjustment. EC50 and IC50 values were determined by fitting polarization values to Eq. (5) and (6), respectively, […]

**Q.** Which results are given for c1cn(-c2ccc(-c3nnc(-c4ccoc4)o3)cn2)cn1 [Compound I2.10]?
**A.** inhibition of E234G HYPE autoAMPylation in gel (E234G HYPE [1]): consistently perturbs HYPE autoAMPylation; AMPylation at in vitro saturation point of inhibition (E234G HYPE [2]; 50 μM): zero percent AMPylation; IC50 (concentration-response of E234G HYPE inhibition) (E234G HYPE [2]; FP microplate, inhibitors 0 to 200 μM): low micromolar; inhibition at 10 µM (E234G HYPE [2]; cherrypick validation, same FP assay, read-out: % Inh. Cherry-pick): 29.7%; inhibition at 10 µM (E234G HYPE [2]; initial HTS, normalized to WT and E234G HYPE DMSO controls, read-out: % Inh. HTS): 24.5%; Mean % Inh. (E234G HYPE [2]; mean of HTS and cherrypick): 27.1%
